Test results taken from paper PMC6277767, “Broad and Region-Specific Impacts of the Synthetic Cannabinoid CP 55,940 in Adolescent and Adult Female Mouse Brains” (Frontiers in Molecular Neuroscience, 2018).

Tested on: CD1 female mouse brain lipidome
Experiment: Brain-region lipid levels (HPLC/MS/MS lipidomics) 2 h after single i.p. 3 mg/kg CP 55,940 vs vehicle
Format: in vivo
Parameters: N-arachidonoyl phenylalanine level, Mean / N-stearoyl tryptophan level, Mean / N-stearoyl proline level, Mean / N-stearoyl leucine level, Mean / N-stearoyl phenylalanine level, Mean / N-stearoyl serine level, Mean / N-stearoyl methionine level, Mean: unit: moles per gram
Details: cortex
Protocol: The Bloomington Institutional Animal Care and Use Committee of Indiana University reviewed and approved the animal procedures. Female mice from the CD1 strain were utilized to match our study examining THC’s effects on the brain lipidome ([Leishman et al., 2018]). Mice were given a single i.p. injection of either 3 mg/kg CP or 1:1:18 cremophor:ethanol:saline vehicle (please refer to the section “3 mg/kg CP Is Relevant for Synthetic Cannabinoid Abuse and Has Stronger Effects on the Female Mouse Brain Lipidome During Adolescence” for a justification of dose and use of female mice). Three different age groups were given injections: PND 35 and PND 50 adolescents, and adult mice (PND 113). At least eight mice in each age group received CP and at least eight received vehicle. Matching the THC study time course ([Leishman et al., 2018]), mice were sacrificed via rapid decapitation 2 h after injection. Brains were immediately removed and flash-frozen in liquid nitrogen, and then stored at -80°C until dissections were performed. Brains were dissected on an ice-cold dissection plate into the following regions: STR, HIPP, CER, THAL, CTX, HYP, MID, and STEM. These abbreviations for these brain areas will be used exclusively when discussing the results generated by these specific dissections. Each dissected area was immediately placed in liquid nitrogen and then stored at -80°C until used for lipid extraction.
Tissue extracts were performed as previously described ([Bradshaw et al., 2006]; [Stuart et al., 2013]; [Raboune et al., 2014]; [Leishman et al., 2016a],[b], [2017], [2018]). First, samples were shock frozen in liquid nitrogen, weighed, and transferred to a centrifuge tube. The mass of the largest sample was multiplied by 50 to determine how many milliliters of HPLC-grade methanol (Fisher, Fair Lawn, NJ, United States) to add. Then, samples were spiked with 500 pmol deuterium-labeled NAGly (d8NAGly; Cayman Chemical, Ann Arbor, MI, United States). Samples were placed on ice in darkness for 2 h then individually homogenized and centrifuged at 19,000 × g for 20 min at 20°C. Supernatants were diluted with HPLC water (purified in house) to make a solution of 75% water, 25% supernatant. Lipids were partially purified on C18 solid phase extraction columns (Agilent, Palo Alto, CA, United States). A series of four elutions with 1.5 mL of 60%, 75%, 85%, and 100% methanol were collected ([Stuart et al., 2013]; [Leishman et al., 2016a],[b], [2018]).
As previously described ([Bradshaw et al., 2006]; [Tan et al., 2006]; [Smoum et al., 2010]; [Stuart et al., 2013]; [Tortoriello et al., 2013]; [Raboune et al., 2014]; [Leishman et al., 2016a],[b], [2017], [2018]), samples were analyzed using an Applied Biosystems API 3000 triple quadrupole mass spectrometer with electrospray ionization (Foster City, CA, United States). Using an Agilent XDB-C18 reversed phase analytical column and optimized mobile phase gradients, 20 μL from each elution were chromatographed. Two Shimadzu 10ADvp pumps (Columbia, MD, United States) provided the pressure for gradient elution. Mobile phase A: 20% methanol, 80% water (v/v) and 1 mM ammonium acetate (Sigma, St. Louis, MO, United States). Mobile phase B: 100% methanol, 1 mM ammonium acetate. Every method run began with 0% mobile phase B, reached 100% mobile phase B flowing at 0.2 mL/min, and gradually returned to 0% mobile phase B.
This screening library will be referred to as the lipidome when discussing data from this study. HPLC/MS/MS data were analyzed using Analyst software (Applied Biosystems) ([Bradshaw et al., 2006]; [Tan et al., 2006]; [Stuart et al., 2013]; [Tortoriello et al., 2013]; [Raboune et al., 2014]; [Leishman et al., 2016a],[b], [2017], [2018]). Chromatograms (Supplementary Figure 3) were generated by determining the retention time of analytes from the analytical column with a [M-1] or [M+1] parent peak and a fragmentation peak corresponding to the programmed values. […]

[1] = PND 50 female mice, 3mg/kg CP 55,940
[2] = WT adult female mice, 3mg/kg CP 55,940

## CCCCCCC(C)(C)c1ccc([C@@H]2C[C@H](O)CC[C@H]2CCCO)c(O)c1 [CP 55,940]
[1]
  N-palmitoyl leucine level, Mean: 1.98E-12
  N-palmitoyl methionine level, Mean: 1.01E-12
  N-palmitoyl phenylalanine level, Mean: 1.98E-12
  N-palmitoyl proline level, Mean: BDL
  N-palmitoyl serine level, Mean: 4.17E-11
  N-palmitoyl tryptophan level, Mean: BDL
  N-palmitoyl tyrosine level, Mean: 6.65E-13
  N-palmitoyl valine level, Mean: 3.13E-13
  N-stearoyl GABA level, Mean: 1.55E-11
  N-stearoyl alanine level, Mean: 3.67E-12
  N-stearoyl ethanolamine level, Mean: 2.8E-12
  N-stearoyl glycine level, Mean: 1.45E-12
  N-stearoyl leucine level, Mean: 2.21E-12
  N-stearoyl methionine level, Mean: 1.13E-12
  N-stearoyl phenylalanine level, Mean: 2.99E-12
  N-stearoyl proline level, Mean: BDL
  N-stearoyl serine level, Mean: 3.75E-11
  N-stearoyl tryptophan level, Mean: BDL
  N-stearoyl tyrosine level, Mean: 2.52E-13
  Oleic acid level, Mean: 1.6E-09
  PGE2 level, Mean: 1.58E-10
  PhosphoLEA level, Mean: 3.22E-12
  THC level, Mean: BDL
[2]
  N-arachidonoyl GABA level, Mean: 1.28E-11
  N-arachidonoyl alanine level, Mean: 1.09E-12
  N-arachidonoyl ethanolamine level, Mean: 2.77E-11
  N-arachidonoyl glycine level, Mean: 1.07E-12
  N-arachidonoyl phenylalanine level, Mean: 5.77E-14
  N-docosahexaenoyl GABA level, Mean: 6.57E-12
  N-docosahexaenoyl ethanolamine level, Mean: 2.54E-11
  N-docosahexaenoyl glycine level, Mean: 8.32E-14
  N-docosahexaenoyl leucine level, Mean: 8.03E-13
  N-docosahexaenoyl phenylalanine level, Mean: 3E-14
  N-linoleoyl GABA level, Mean: 4.08E-12
  N-linoleoyl ethanolamine level, Mean: 2.93E-11
  N-linoleoyl glycine level, Mean: 5.03E-14
  N-linoleoyl leucine level, Mean: 9.31E-14
  N-oleoyl GABA level, Mean: 9.86E-12
  N-oleoyl alanine level, Mean: 2.22E-12
  N-oleoyl ethanolamine level, Mean: 1.38E-10
  N-oleoyl glycine level, Mean: 2.9E-13
  N-oleoyl leucine level, Mean: 7.57E-13
  N-oleoyl phenylalanine level, Mean: 3.2E-13
  N-palmitoyl GABA level, Mean: 1.4E-11
  N-palmitoyl alanine level, Mean: 2.07E-12
  N-palmitoyl ethanolamine level, Mean: 3.62E-11
  N-palmitoyl glycine level, Mean: 9.43E-13
  N-palmitoyl leucine level, Mean: 1.16E-12
  N-palmitoyl methionine level, Mean: 2.58E-12
  N-palmitoyl phenylalanine level, Mean: 2.56E-13
  N-stearoyl GABA level, Mean: 1.05E-11
  N-stearoyl alanine level, Mean: 3.38E-12
  N-stearoyl ethanolamine level, Mean: 3.18E-11
  N-stearoyl glycine level, Mean: 1.95E-12
  N-stearoyl leucine level, Mean: 1.32E-12
  N-stearoyl methionine level, Mean: 3.92E-13
  N-stearoyl phenylalanine level, Mean: 1.71E-13
PND 35, 3 mg/kg CP 55,940
  2-palmitoyl glycerol Direction (rel to Veh): ↑
  2-palmitoyl glycerol, Magnitude (x Veh level): 1.57 x Veh level
  6-ketoPGF1α Direction (rel to Veh): ↓
  6-ketoPGF1α Magnitude (x Veh level): 0.68 x Veh level
  N-arachidonoyl GABA Direction (rel to Veh): ↓
  N-arachidonoyl GABA Magnitude (x Veh level): 0.83 x Veh level
  N-arachidonoyl alanine Direction (rel to Veh): ↓
  N-arachidonoyl alanine Magnitude (x Veh level): 0.77 x Veh level
  N-arachidonoyl glycine Direction (rel to Veh): ↓
  N-arachidonoyl glycine Magnitude (x Veh level): 0.75 x Veh level
  N-arachidonoyl methionine Direction (rel to Veh): ↓
  N-arachidonoyl methionine, Magnitude (x Veh level): 0.60 x Veh level
  N-arachidonoyl phenylalanine Direction (rel to Veh): ↓
  N-arachidonoyl phenylalanine, Magnitude (x Veh level): 0.76 x Veh level
  N-arachidonoyl serine Direction (rel to Veh): ↓
  N-arachidonoyl serine Magnitude (x Veh level): 0.75 x Veh level
  N-arachidonoyl taurine Direction (rel to Veh): ↓
  N-arachidonoyl taurine Magnitude (x Veh level): 0.83 x Veh level
  N-arachidonoyl tyrosine Direction (rel to Veh): ↓
  N-arachidonoyl tyrosine, Magnitude (x Veh level): 0.73 x Veh level
  N-docosahexaenoyl GABA Direction (rel to Veh): ↓
  N-docosahexaenoyl GABA Magnitude (x Veh level): 0.88 x Veh level
  N-docosahexaenoyl glycine Direction (rel to Veh): ↓
  N-docosahexaenoyl glycine Magnitude (x Veh level): 0.78 x Veh level
  N-docosahexaenoyl leucine Direction (rel to Veh): ↑
  N-docosahexaenoyl leucine Magnitude (x Veh level): 1.52 x Veh level
  N-docosahexaenoyl serine Direction (rel to Veh): ↓
  N-docosahexaenoyl serine Magnitude (x Veh level): 0.62 x Veh level
  N-docosahexaenoyl valine Direction (rel to Veh): ↑
  N-docosahexaenoyl valine Magnitude (x Veh level): 1.37 x Veh level
  N-linoleoyl GABA Direction (rel to Veh): ↓
  N-linoleoyl GABA Magnitude (x Veh level): 0.88 x Veh level
  N-linoleoyl glycine Direction (rel to Veh): ↓
  N-linoleoyl glycine Magnitude (x Veh level): 0.69 x Veh level
  N-oleoyl GABA Direction (rel to Veh): ↓
  N-oleoyl GABA Magnitude (x Veh level): 0.81 x Veh level
  N-oleoyl alanine Direction (rel to Veh): ↓
  N-oleoyl alanine Magnitude (x Veh level): 0.75 x Veh level
  N-oleoyl glycine Direction (rel to Veh): ↓
  N-oleoyl glycine Magnitude (x Veh level): 0.89 x Veh level
  N-oleoyl leucine Direction (rel to Veh): ↑
  N-oleoyl leucine Magnitude (x Veh level): 1.22 x Veh level
  N-oleoyl methionine Direction (rel to Veh): ↓
  N-oleoyl methionine, Magnitude (x Veh level): 0.67 x Veh level
  N-oleoyl valine Direction (rel to Veh): ↑
